The target of this test is Caspase-3 (Homo sapiens) (UniProt P42574). Nature of the test: caspase-3 inhibitors as false-positive filter, SAR follow-up, counter-screen for UBC13 polyubiquitin inhibitor project, biochemical, luminescence, Caspase-Glo 3/7, set 2 (AID 588375). As to conditions: recombinant caspase-3, Caspase-Glo luminescence, 60 min.

The term IC50 denotes the concentration that inhibits the measured activity by half.

Active and inactive are the calls of the source.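 Rule for the calls: active = IC50 below 100 µM in the TR-FRET assay, unless also active in the caspase-3 counter assay; inactive = the rest, including compounds also active in caspase-3.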

Chain of Caspase-3 (Homo sapiens) (P42574 whole entry, looked up): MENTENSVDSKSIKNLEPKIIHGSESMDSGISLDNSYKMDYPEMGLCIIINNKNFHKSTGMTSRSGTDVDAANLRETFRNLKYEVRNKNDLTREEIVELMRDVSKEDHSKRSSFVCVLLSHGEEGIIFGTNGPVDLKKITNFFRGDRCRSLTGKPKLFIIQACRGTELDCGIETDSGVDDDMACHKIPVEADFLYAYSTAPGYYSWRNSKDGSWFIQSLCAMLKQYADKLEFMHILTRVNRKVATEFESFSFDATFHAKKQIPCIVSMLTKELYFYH

As to `CC1(C)Cc2c(sc(NC(=O)C(=O)NCC3CCCO3)c2C(N)=O)CO1` (configuration not stated), the IC50 is > 100 µM (inactive).

In the case of `O=C(C1CCN(c2ncnc3c2nc2n3CCCCC2)CC1)N1CCN(c2ccccn2)CC1`, the IC50 is > 100 µM (inactive).

`O=C(NCCCN1CCN(c2ccc(F)cc2)CC1)C1CCCN(c2ncnc3c2nc2n3CCCCC2)C1` (configuration not stated): the IC50 is > 100 µM (inactive).

For the compound `Cc1nc2ccccc2n1C1CCN(CC(=O)Nc2ccccc2Oc2ccccc2)CC1`, the IC50 is > 100 µM (inactive).

Consider `O=C(NCCCN1CCN(c2ccccc2)CC1)C1CCCN(c2ncnc3c2nc2n3CCCCC2)C1` (configuration not stated), for which the IC50 is > 100 µM (inactive).

Turning to `COc1ccc(NC(=O)CN2CCC(n3c(C)nc4cc(F)ccc43)CC2)c(OC)c1`, the IC50 was > 100 µM (inactive).

With `COC(=O)c1c(NC(=O)C(=O)NCC2CCCO2)sc2c1CC(C)(C)OC2` (configuration not stated), the IC50 is > 100 µM (inactive).

On to `Cc1cccc(N2CCN(CCCNC(=O)C3CCCN(c4ncnc5c4nc4n5CCCCC4)C3)CC2C)c1` (configuration not stated), for which the IC50 is > 100 µM (inactive).

With `CCOc1ccc(NC(=O)CN2CCC(n3cnc4cc(F)ccc43)CC2)cc1`, the IC50 is > 100 µM (inactive).

On to `COc1ccccc1N1CCN(CCCNC(=O)C2CCCN(c3ncnc4c3nc3n4CCCCC3)C2)CC1` (configuration not stated), for which the IC50 is > 100 µM (inactive).

On to `O=C(CN1CCC(n2cnc3cc(C(F)(F)F)ccc32)CC1)Nc1ccc2c(c1)OCCO2`, for which the IC50 was > 100 µM (inactive).

As for `O=C(C1CCN(c2ncnc3c2nc2n3CCCCC2)CC1)N1CCN(c2ccc(F)cc2)CC1`, the IC50 is > 100 µM (inactive).

As to `O=C(CN1CCC(n2cnc3cc(F)ccc32)CC1)Nc1ccccc1Br`, the IC50 was > 100 µM (inactive).

In the case of `Cc1nc2cc(F)ccc2n1C1CCN(CC(=O)Nc2ccccc2)CC1`, the IC50 is > 100 µM (inactive).

With `COc1ccc(OC)c(NC(=O)CN2CCC(n3cnc4cc(F)ccc43)CC2)c1`, the IC50 was > 100 µM (inactive).

With `CCOc1ccccc1NC(=O)CN1CCC(n2cnc3cc(F)ccc32)CC1`, the IC50 was > 100 µM (inactive).

Consider `O=C(C1CCN(c2ncnc3c2nc2n3CCCCC2)CC1)N1CCN(Cc2ccccc2)CC1`, for which the IC50 was > 100 µM (inactive).

For the compound `Cc1ccc(C)c(N2CCN(CCCNC(=O)C3CCCN(c4ncnc5c4nc4n5CCCCC4)C3)CC2)c1` (configuration not stated), the IC50 is > 100 µM (inactive).

Regarding `CC1(C)Cc2c(sc(NC(=O)C(=O)NCC3CCCO3)c2C(=O)O)CO1` (configuration not stated), the IC50 was > 100 µM (inactive).

Regarding `O=C(c1ccco1)N1CCN(C(=O)C2CCN(c3ncnc4c3nc3n4CCCCC3)CC2)CC1`, the IC50 is > 100 µM (inactive).

Turning to `O=C(C1CCN(c2ncnc3c2nc2n3CCCCC2)CC1)N1CCN(c2ncccn2)CC1`, the IC50 is > 100 µM (inactive).

In the case of `CC1(C)Cc2c(sc(NC(=O)C(=O)NCCN3CCOCC3)c2C(N)=O)CO1`, the IC50 was > 100 µM (inactive).

`Cc1cccc(NC(=O)CN2CCC(n3cnc4cc(F)ccc43)CC2)c1C`: the IC50 is > 100 µM (inactive).

Regarding `O=C(CN1CCC(n2c(C(F)(F)F)nc3cc(F)ccc32)CC1)Nc1ccc2c(c1)OCO2`, the IC50 was > 100 µM (inactive).

Consider `CC1(C)Cc2c(sc(NC(=O)C(=O)N3CCCC3)c2C(N)=O)CO1`, for which the IC50 was > 100 µM (inactive).

Regarding `COc1ccc(OC)c(NC(=O)CN2CCC(n3c(C)nc4cc(F)ccc43)CC2)c1`, the IC50 is > 100 µM (inactive).

As to `O=C(CN1CCC(n2cnc3cc(F)ccc32)CC1)Nc1cccc(C(F)(F)F)c1`, the IC50 was > 100 µM (inactive).

(Values after PubChem BioAssay AID588375 (Sanford-Burnham Center for Chemical Genomics, 2011).)
